Measured values as given in US20170066759A1, “AROMATIC 5-MEMBERED HETEROCYCLIC DERIVATIVE HAVING TRPV4-INHIBITING ACTIVITY” (Shionogi & Co., Ltd., priority 2012, published 2017).

target: T1, human TRPV4 (hTRPV4/CHO cells) (Homo sapiens, UniProt Q9HBA0); test: Test Example 1: TRPV4 inhibitory activity (IC50 value), 4α-PDD stimulation, Fluo4 calcium fluorescence (FLIPR TETRA); assay type: cell-based; conditions: 1 μmol/L 4α-PDD, Fluo4-AM, read-out: TRPV4 inhibitory activity (IC50 value)
T1 construct: expressed in transfected cells; host or cells: CHO-K1
T1 sequence (Q9HBA0 whole entry): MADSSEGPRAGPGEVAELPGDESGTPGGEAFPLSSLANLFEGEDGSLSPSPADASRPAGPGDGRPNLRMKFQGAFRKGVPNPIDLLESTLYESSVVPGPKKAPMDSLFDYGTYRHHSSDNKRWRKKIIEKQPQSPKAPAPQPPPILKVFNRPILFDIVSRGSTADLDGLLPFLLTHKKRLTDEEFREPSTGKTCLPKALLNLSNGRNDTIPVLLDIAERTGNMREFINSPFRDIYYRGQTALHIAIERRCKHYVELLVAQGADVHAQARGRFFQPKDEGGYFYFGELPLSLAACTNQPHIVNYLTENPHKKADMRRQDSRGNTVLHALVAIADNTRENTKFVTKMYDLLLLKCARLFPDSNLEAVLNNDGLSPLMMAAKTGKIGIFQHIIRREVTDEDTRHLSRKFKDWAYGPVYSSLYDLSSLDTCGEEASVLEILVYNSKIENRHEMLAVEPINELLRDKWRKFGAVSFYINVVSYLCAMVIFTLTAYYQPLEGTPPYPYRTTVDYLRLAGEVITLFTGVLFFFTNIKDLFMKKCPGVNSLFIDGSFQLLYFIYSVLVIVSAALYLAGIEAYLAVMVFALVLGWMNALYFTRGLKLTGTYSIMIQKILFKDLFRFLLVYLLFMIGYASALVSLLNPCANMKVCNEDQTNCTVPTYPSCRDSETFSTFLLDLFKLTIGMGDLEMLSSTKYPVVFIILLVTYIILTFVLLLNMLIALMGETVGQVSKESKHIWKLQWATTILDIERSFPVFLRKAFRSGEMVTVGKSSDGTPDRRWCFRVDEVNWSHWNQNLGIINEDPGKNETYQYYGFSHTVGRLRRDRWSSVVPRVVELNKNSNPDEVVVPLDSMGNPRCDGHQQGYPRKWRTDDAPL

IC50	Structure (SMILES)
1.6 nM	Cc1nc(C)c(-c2csc(NC(=O)Cc3cc(OCC(F)(F)F)cc(C(=O)N[C@H](c4ccccc4)C(F)(F)F)c3)n2)s1 [Compound I-521]

same assay, conditions: Test Example 1, 4α-PDD stimulation, read-out: Test 1 IC50

IC50	Structure (SMILES)
< 100 nM	Cc1nc(C)c(-c2csc(NC(=O)C3CN(Cc4ccccc4C(F)(F)F)C3)n2)s1 [Compound I-260]
< 100 nM	Cc1nc(C)c(-c2csc(NC(=O)[C@H]3C[C@@H](N(C)Cc4ccc(C(F)(F)F)cc4)C3)n2)s1 [Compound I-367]
< 100 nM	Cc1nc(C)c(-c2csc(NC(=O)Cc3cccc(OC(F)(F)F)c3)n2)s1 [Compound I-100]
< 100 nM	Cc1nc(CO)sc1-c1csc(NC(=O)[C@H]2C[C@@H](c3ccc(C(F)(F)F)cc3)C2)n1 [Compound I-405]
< 100 nM	Cc1nc([C@@H](C)O)sc1-c1csc(NC(=O)Cc2ccc(S(=O)(=O)C(F)(F)F)cc2)n1 [Compound I-455]
< 100 nM	Cc1nc(C)c(-c2csc(NC(=O)C3CCN(c4ncc(C(F)(F)F)cn4)CC3)n2)s1 [Compound I-379]
< 100 nM	Cc1nc(C)c(-c2csc(NC(=O)CC3CN(c4ccc(C(F)(F)F)cc4)C3)n2)s1 [Compound I-492]
100 to 1000 nM	Cc1nc(C)c(-c2csc(NC(=O)Cc3ccc(S(=O)(=O)C(C)C)cc3)n2)s1 [Compound I-122]
< 100 nM	Cc1nc(C)c(-c2csc(NC(=O)[C@H]3C[C@H](Oc4ccc(C(F)(F)F)cc4)C3)n2)s1 [Compound I-365]
< 100 nM	Cc1nc(C)c(-c2csc(NC(=O)[C@@H]3C[C@@H](c4ccccc4)CN3CC(F)(F)F)n2)s1 [Compound I-292]
100 to 1000 nM	Cc1nc(C)c(-c2csc(NC(=O)C3CN(C(=O)c4ccc(C(F)(F)F)cc4)C3)n2)s1 [Compound I-257]
< 100 nM	Cc1nc(C)c(-c2csc(NC(=O)Cc3cccc(C(=O)Nc4ccc(C(F)(F)F)cc4)n3)n2)s1 [Compound I-508]
1000 to 8000 nM	Cc1nc(C)c(-c2csc(NC(=O)OC3CN(c4ncc(C(F)(F)F)cn4)C3)n2)s1 [Compound I-386]
100 to 1000 nM	Cc1nc(C)c(-c2csc(NC(=O)Cc3ccc(S(=O)(=O)C(F)(F)F)cc3)n2)s1 [Compound I-117]
< 100 nM	Cc1nc(C)c(-c2csc(NC(=O)C3(CO)CN(c4ccc(C(F)(F)F)cc4)C3)n2)s1 (racemic) [Compound I-532]
100 to 1000 nM	Cc1nc(C(C)O)sc1-c1csc(NC(=O)C2CN(c3ccc(C(F)(F)F)cn3)C2)n1 (racemic) [Compound I-473]
< 100 nM	Cc1nc(CO)sc1-c1csc(NC(=O)C2CN(S(=O)(=O)c3ccc(C(F)(F)F)cc3)C2)n1 [Compound I-306]
100 to 1000 nM	CCS(=O)(=O)c1ccc(CC(=O)Nc2nc(-c3sc(C)nc3C)cs2)cc1 [Compound I-80]
< 100 nM	COc1cc(CC(=O)Nc2nc(-c3sc(C)nc3C)cs2)cc(C(=O)Nc2ccc(C(F)(F)F)cc2)c1 [Compound I-525]
< 100 nM	Cc1nc(CO)sc1-c1csc(NC(=O)Cn2cc(C(F)(F)F)cn2)n1 [Compound I-136]
1000 to 8000 nM	Cc1nc(C)c(-c2csc(NC(=N)Cc3ccc(Cl)cc3)n2)s1 [II-31]
< 100 nM	Cc1nc(C)c(-c2csc(NC(=O)Cc3cccc(S(=O)(=O)Nc4ccc(C(F)(F)F)cc4)c3)n2)s1 [Compound I-498]
< 100 nM	Cc1nc(C)c(-c2csc(NC(=O)Cn3cc(-c4ccc(Cl)cc4)nn3)n2)s1 [Compound I-423]
< 100 nM	Cc1nc(CO)sc1-c1csc(NC(=O)C2CN(c3ncc(C(F)(F)F)cn3)C2)n1 [Compound I-307]
< 100 nM	Cc1nc(C)c(-c2csc(NC(=O)Cn3cc(C(F)(F)F)cn3)n2)s1 [Compound I-124]
100 to 1000 nM	Cc1nc(C)c(-c2csc(NC(=O)C3Cc4ccccc4N3)n2)s1 (stereo not shown) [Compound I-177]
< 100 nM	Cc1nc(C)c(-c2csc(NC(=O)[C@H]3C[C@@H](OCc4ccc(C(F)(F)F)cc4)C3)n2)s1 [Compound I-354]
100 to 1000 nM	Cc1nc(C)c(-c2csc(NC(=O)CN3CCN(c4ccccc4)CC3)n2)s1 [Compound I-144]
100 to 1000 nM	Cc1nc(C)c(-c2csc(NC(=O)CN3CCC[C@@H](c4ccccc4)C3)n2)s1 [Compound I-183]

The next lines start with the compound.

Structure (SMILES)	IC50
Cc1nc(C)c(-c2csc(NC(=O)Cn3cc(CCCC#N)nn3)n2)s1 [Compound I-429]	1000 to 8000 nM
Cc1nc(C)c(-c2csc(NC(=O)Cn3cc(CNC(=O)OC(C)(C)C)nn3)n2)s1 [Compound I-421]	1000 to 8000 nM
Cc1nc(C)c(-c2csc(NC(=O)Cc3cccc(C(=O)NC(c4ccccc4)C(F)(F)F)n3)n2)s1 (stereo not shown) [Compound I-506]	< 100 nM
Cc1nc(C)c(-c2csc(NCC(O)c3ccccc3)n2)s1 (racemic) [II-39]	100 to 1000 nM
CC(=O)NCc1nc(C)sc1-c1csc(NC(=O)Cc2ccc(S(=O)(=O)C(F)(F)F)cc2)n1 [Compound I-471]	< 100 nM
Cc1nc(C)c(-c2csc(C(=O)NCc3cccc(F)c3)n2)s1 [II-2]	1000 to 8000 nM
Cc1nc(C)c(-c2nc(NC(=O)Cc3c(F)cccc3F)sc2C(=O)Nc2ccc(Cl)cc2)s1 [Compound I-85]	1000 to 8000 nM
NC(=O)CCc1nc(CO)sc1-c1csc(NC(=O)Cc2ccc(S(=O)(=O)C(F)(F)F)cc2)n1 [Compound I-407]	100 to 1000 nM
Cc1nc(CO)sc1-c1csc(NC(=O)Cc2c(F)cccc2F)n1 [Compound I-76]	< 100 nM
Cc1nc(C)c(-c2csc(NC(=O)Cc3cc(F)cc(C#N)c3)n2)s1 [Compound I-77]	< 100 nM
CCOC(=O)c1nc(C)sc1-c1csc(NC(=O)Cc2c(F)cccc2F)n1 [Compound I-539]	< 100 nM
O=C(Nc1nc(-c2sc(CO)nc2CO)cs1)[C@H]1C[C@@H](OCc2ccccc2C(F)(F)F)C1 [Compound I-347]	100 to 1000 nM
Cc1nc([C@H](C)O)sc1-c1csc(NC(=O)Cc2cc(Br)cc(C(=O)Nc3ccc(C(F)(F)F)cc3)c2)n1 [Compound I-523]	< 100 nM
Cc1nc(C)c(-c2csc(NC(=O)[C@H](CCc3ccccc3)NC(=O)OC(C)(C)C)n2)s1 [Compound I-266]	100 to 1000 nM
Cc1nc(C)c(-c2csc(NC(=O)[C@@H]3C[C@@H](c4ccccc4)CN3C)n2)s1 [Compound I-217]	1000 to 8000 nM
Cc1nc(C)c(-c2csc(NC(=O)[C@@H]3C[C@@H](N4CCC(c5ccccc5)CC4)CN3C(=O)C(F)(F)F)n2)s1 [Compound I-276]	< 100 nM
Cc1nc(C(=O)NCCO)c(-c2csc(NC(=O)Cc3c(F)cccc3F)n2)s1 [Compound I-182]	1000 to 8000 nM
CCOC(=O)N1C[C@H](c2ccccc2)C[C@H]1C(=O)Nc1nc(-c2sc(CO)nc2C)cs1 [Compound I-313]	< 100 nM
Cc1nc(C)c(-c2csc(NCCc3ccccc3)n2)s1 [II-35]	< 100 nM
Cc1nc(C)c(-c2csc(NC(=O)C3CCCN(S(=O)(=O)c4ccccc4)C3)n2)s1 (stereo not shown) [Compound I-194]	1000 to 8000 nM
Cc1nc(C(C)O)c(-c2csc(NC(=O)Cc3c(F)cccc3F)n2)s1 (stereo not shown) [Compound I-130]	100 to 1000 nM
O=C(Cc1ccc(S(=O)(=O)C(F)(F)F)cc1)Nc1nc(-c2sc(CO)nc2CCC(=O)N2CCOCC2)cs1 [Compound I-363]	100 to 1000 nM
Cc1nc(C)c(-c2csc(NC(=O)Cc3cc(OCC(F)(F)F)cc(C(=O)N[C@H](c4ccccc4)C(F)(F)F)c3)n2)s1 [Compound I-521]	< 100 nM

Structure (SMILES)	IC50
CON(C)C(=O)c1nc(C)c(-c2csc(NC(=O)Cc3c(F)cccc3F)n2)s1 [Compound I-105]	1000 to 8000 nM
Cc1nc(C)c(-c2csc(NC(=O)[C@@H]3C[C@@H](c4ccccc4)CN3C(=O)OC(C)(C)C)n2)s1 [Compound I-210]	< 100 nM
COc1ccc(N(C)S(=O)(=O)c2ccc(CC(=O)Nc3nc(-c4sc(C)nc4C)cs3)cc2)cc1 [Compound I-158]	< 100 nM
COc1cc(CC(=O)Nc2nc(-c3sc(C)nc3C)cs2)cc(C(=O)Nc2ccc(Cl)cc2F)c1 [Compound I-526]	< 100 nM
C=C(C)c1sc(NC(=O)Cc2c(F)cccc2F)nc1-c1sc(C)nc1C [Compound I-71]	1000 to 8000 nM
CC(=O)Nc1cccc(CC(=O)Nc2nc(-c3sc(C)nc3C)cs2)c1 [Compound I-414]	1000 to 8000 nM
Cc1nc(C)c(-c2csc(NCCOc3ccccc3)n2)s1 [II-47]	100 to 1000 nM
Cc1nc(CO)sc1-c1csc(NC(=O)/C=C/c2ccccc2)n1 [Compound I-462]	100 to 1000 nM
Cc1nc(C)c(-c2csc(NC(=O)Cc3cccc(N(C)C(=O)c4ccccc4)c3)n2)s1 [Compound I-432]	100 to 1000 nM
Cc1nc(C)c(-c2csc(NC(=O)[C@@H]3C[C@@H](Oc4ccccc4)CN3C(=O)OC(C)(C)C)n2)s1 [Compound I-242]	< 100 nM
CC(=O)NCc1nc(C)c(-c2csc(NC(=O)Cc3ccc(S(=O)(=O)C(F)(F)F)cc3)n2)s1 [Compound I-397]	100 to 1000 nM
Cc1nc(CO)sc1-c1csc(NC(=O)Nc2ccc(C(F)(F)F)nc2)n1 [Compound I-447]	< 100 nM
Cc1nc(COCC(F)(F)F)sc1-c1csc(NC(=O)Cc2ccc(S(=O)(=O)C(F)(F)F)cc2)n1 [Compound I-460]	1000 to 8000 nM
Cc1nc(C)c(-c2csc(NC(=O)Cn3cc(-c4ccccc4)nn3)n2)s1 [Compound I-191]	< 100 nM
Cc1nc(CC#N)sc1-c1csc(NC(=O)Cc2ccc(S(=O)(=O)C(F)(F)F)cc2)n1 [Compound I-392]	< 100 nM
Cc1nc(C(F)F)sc1-c1csc(NC(=O)C2CC(OCc3ccccc3)C2)n1 (stereo not shown) [Compound I-111]	1000 to 8000 nM
CC(=O)Nc1nc(-c2sc(C)nc2C)cs1 [Compound I-480]	1000 to 8000 nM
Cc1nc(C)c(-c2csc(NC(=O)Cc3cc(C#N)cc(C(=O)N[C@H](c4ccccc4)C(F)(F)F)c3)n2)s1 [Compound I-516]	< 100 nM
O=C(Cc1ccc(S(=O)(=O)C(F)(F)F)cc1)Nc1nc(-c2sc(CO)nc2CN2CCOC2=O)cs1 [Compound I-483]	100 to 1000 nM
NC(=O)OCCc1nc(CO)sc1-c1csc(NC(=O)Cc2ccc(S(=O)(=O)C(F)(F)F)cc2)n1 [Compound I-370]	< 100 nM
COc1cc(CC(=O)Nc2nc(-c3sc(C)nc3C)cs2)cc(C(=O)NC(c2ccccc2)C(F)(F)F)c1 (stereo not shown) [Compound I-504]	< 100 nM
Cc1nc(C)c(-c2csc(NC(=O)[C@@H]3CCCN3C(=O)OC(C)(C)C)n2)s1 [Compound I-249]	100 to 1000 nM
Cc1nc(CO)sc1-c1csc(NC(=O)[C@H]2C[C@@H](OCC(F)(F)F)C2)n1 [Compound I-356]	100 to 1000 nM
